Values belong to the compound of their own block, whether it stands above or below them.
Tests used:
[1] = molecular target: T1, murine COX-2 (Mus musculus, UniProt Q05769); details: COX-2, 50 μM arachidonic acid (saturating)
T1 sequence (Q05769 18-604): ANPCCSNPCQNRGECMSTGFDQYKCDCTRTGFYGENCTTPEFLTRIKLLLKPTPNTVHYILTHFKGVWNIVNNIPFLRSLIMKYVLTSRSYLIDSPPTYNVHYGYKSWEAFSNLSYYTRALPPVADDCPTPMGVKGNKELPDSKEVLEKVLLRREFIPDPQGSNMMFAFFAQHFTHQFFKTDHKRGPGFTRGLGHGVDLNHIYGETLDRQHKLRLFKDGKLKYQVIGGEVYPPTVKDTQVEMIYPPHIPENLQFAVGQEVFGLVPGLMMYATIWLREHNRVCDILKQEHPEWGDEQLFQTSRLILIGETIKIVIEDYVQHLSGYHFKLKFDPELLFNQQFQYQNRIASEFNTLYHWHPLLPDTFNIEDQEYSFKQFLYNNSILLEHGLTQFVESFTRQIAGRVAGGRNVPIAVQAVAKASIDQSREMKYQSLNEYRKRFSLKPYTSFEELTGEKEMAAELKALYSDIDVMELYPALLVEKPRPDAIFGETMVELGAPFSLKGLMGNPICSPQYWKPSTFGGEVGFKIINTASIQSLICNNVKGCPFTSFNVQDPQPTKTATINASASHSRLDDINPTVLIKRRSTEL

[2] = Photoisomerization / light stability of E and Z isomers
[3] = molecular target: T2, ovine COX-1 (Ovis aries, UniProt P05979); details: COX-1, 50 μM arachidonic acid (saturating)
T2 sequence (P05979 25-600): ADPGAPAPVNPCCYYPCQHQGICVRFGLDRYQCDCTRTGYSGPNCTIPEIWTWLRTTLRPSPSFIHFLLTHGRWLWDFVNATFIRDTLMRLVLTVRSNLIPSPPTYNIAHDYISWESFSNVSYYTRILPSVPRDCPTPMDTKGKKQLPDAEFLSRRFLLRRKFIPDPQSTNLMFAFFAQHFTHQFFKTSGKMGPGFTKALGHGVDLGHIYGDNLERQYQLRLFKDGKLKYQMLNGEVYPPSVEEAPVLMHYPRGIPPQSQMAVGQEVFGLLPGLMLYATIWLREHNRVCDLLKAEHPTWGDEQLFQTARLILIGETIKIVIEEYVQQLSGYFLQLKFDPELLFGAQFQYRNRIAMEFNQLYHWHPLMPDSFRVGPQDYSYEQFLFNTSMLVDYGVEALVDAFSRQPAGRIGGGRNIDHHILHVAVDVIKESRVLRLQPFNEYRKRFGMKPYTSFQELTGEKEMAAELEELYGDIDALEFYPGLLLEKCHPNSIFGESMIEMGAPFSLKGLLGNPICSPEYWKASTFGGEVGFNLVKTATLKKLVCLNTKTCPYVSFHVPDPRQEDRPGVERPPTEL

[4] = molecular target: T1, murine COX-2; assay: Competitive COX inhibition assay, reduced arachidonate; format: biochemical; details: COX-2, 5 μM arachidonate, at the concentration ranges tested
[5] = test system: oCOX-1; details: wild-type oCOX-1; cited from earlier work
[6] = molecular target: T2, ovine COX-1; details: COX-1, 5 μM vs 50 μM arachidonate, data not shown

- time-dependent inhibition (in words) [1]: no time-dependent inhibition
- percentage conversion to the Z-isomer ([2]; 370 nm, 24 hours, high-pressure mercury lamp): 1-2%
- time-dependent inhibition (in words) [3]: no time-dependent inhibition
- competitive inhibition (in words) [4]: no inhibition
SMILES: CSc1ccc(/C=C2\C=C(CC(=O)O)c3cc(F)ccc32)cc1

- behaviour on exposure to natural light ([2]; natural light, during HPLC purification): photoisomerized to the E-isomer
SMILES: CSc1ccc(/C=C2/C=C(CC(=O)O)c3cc(F)ccc32)cc1 [(Z)-2′-des-methyl sulindac sulfide]

- effect of reduced substrate concentration on ability to inhibit [6]: not significantly affected
- photoisomerization (interconversion) ([2]; natural light and ultraviolet conditions): no interconversion was observed
- maximal extent (plateau) of inhibition [3]: around 75%
SMILES: CSc1ccc(/C=C2/C(C)=C(CC(=O)O)c3cc(F)ccc32)cc1 [sulindac sulfide, reference compound]
